Biological target: T1, recombinant human GST-SYK (Homo sapiens, UniProt P43405)
T1 construct: purchased Carna Biosciences 08-176
Assay: Homogeneous Time-Resolved Fluorescence (HTRF) assay for the recombinant human SYK enzyme
Format: biochemical
Conditions: recombinant human GST-SYK 5 pM, ATP 25 μM, 10-dose titration; read-out: rhSYK Activity (IC50)
Method: Homogeneous Time-Resolved Fluorescence (HTRF) Assay for the Recombinant Human SYK Enzyme:
A recombinant GST-hSYK fusion protein was used to measure potency of compounds to inhibit human SYK activity. The recombinant human GST-SYK (Carna Biosciences #08-176) (5 pM final concentration) was incubated with various concentrations of the inhibitor diluted in DMSO (0.1% final concentration) for 10 minutes at room temperature in 15 mM Tris-HCl (pH 7.5), 0.01% tween 20, 2 mM DTT in 384 well plate format. To initiate the reaction the biotinylated substrate peptide (250 nM final concentration) that contains the phosphorylation site for SYK was added with magnesium (5 mM final concentration) and ATP (25 μM final concentration). Final volume of the reaction was 10 μL. Phosphorylation of the peptide was allowed to proceed for 45′ at room temperature. To quench the reaction and detect the phosphorylated product, 2 nM of a Europium-atiti-phosphotyrosine antibody (Perkin Elmer #AD0161) and 70 nM SA-APC (Perkin-Elmer #CR130-100) were added together in 15 mM Tris pH 7.5, 40 mM EDTA, 0.01% tween 20. Final volume of the quenching solution was 10 μL. The resulting HTRF signal was measured after 30 minutes on a EnVision (Perkin-Elmer) reader using a time-resolved fluorescence protocol.

SMILES	IC50
CSc1ccnc(Nc2cc(C)cc(-c3cnc(N4CCCNC(=O)C4)s3)c2)n1 [4-[5-(3-methyl-5-{[4-(methylsulfanyl)pyrimidin-2-yl]amino}phenyl)-1,3-thiazol-2-yl]-1,4-diazepan-2-one]	≤ 0.1 µM
Cc1cc(Nc2nccc(C(F)(F)F)n2)cc(-c2cnc(N3CCC4(CCNC4)CC3)s2)c1 [Example 1, N-{3-[2-(2,8-diazaspiro[4.5]dec-8-yl)-1,3-thiazol-5-yl]-5-methylphenyl}-4-(trifluoromethyl)-pyrimidin-2-amine]	≤ 0.1 µM
OCCNc1ncc(-c2cccc(Nc3nccc(C(F)(F)F)n3)c2)s1 [Example 2]	≤ 0.1 µM
OCCN(CCO)c1ncc(-c2cccc(Nc3nccc(C(F)(F)F)n3)c2)s1 [Example 3]	≤ 0.1 µM
CN(CCO)c1ncc(-c2cccc(Nc3nccc(C(F)(F)F)n3)c2)s1 [Example 4]	≤ 0.1 µM
COCCNc1ncc(-c2cccc(Nc3nccc(C(F)(F)F)n3)c2)s1 [Example 5]	≤ 0.1 µM
CCCCN(CCO)c1ncc(-c2cccc(Nc3nccc(C(F)(F)F)n3)c2)s1 [Example 6]	≤ 0.1 µM
CN(CC(O)c1ccccc1)c1ncc(-c2cccc(Nc3nccc(C(F)(F)F)n3)c2)s1 (stereo not drawn) [Example 7]	≤ 0.1 µM
OCCN(Cc1ccccn1)c1ncc(-c2cccc(Nc3nccc(C(F)(F)F)n3)c2)s1 [Example 8]	≤ 0.1 µM
CCC(O)CNc1ncc(-c2cccc(Nc3nccc(C(F)(F)F)n3)c2)s1 (stereo not drawn) [Example 9]	≤ 0.1 µM
CCC(CO)Nc1ncc(-c2cccc(Nc3nccc(C(F)(F)F)n3)c2)s1 (stereo not drawn) [Example 10]	≤ 0.1 µM
OCC(CO)Nc1ncc(-c2cccc(Nc3nccc(C(F)(F)F)n3)c2)s1 [Example 11]	≤ 0.1 µM
OC1COCC1Nc1ncc(-c2cccc(Nc3nccc(C(F)(F)F)n3)c2)s1 (stereo not drawn) [Example 12]	≤ 0.1 µM
OC(CNc1ncc(-c2cccc(Nc3nccc(C(F)(F)F)n3)c2)s1)C(F)F (stereo not drawn) [Example 13]	≤ 0.1 µM
OCCCNc1ncc(-c2cccc(Nc3nccc(C(F)(F)F)n3)c2)s1 [Example 15]	≤ 0.1 µM
CC(C)(CO)CNc1ncc(-c2cccc(Nc3nccc(C(F)(F)F)n3)c2)s1 [Example 16]	≤ 0.1 µM
OC1(CCNc2ncc(-c3cccc(Nc4nccc(C(F)(F)F)n4)c3)s2)CCCC1 [Example 17]	≤ 0.1 µM
OCCCCNc1ncc(-c2cccc(Nc3nccc(C(F)(F)F)n3)c2)s1 [Example 18]	≤ 0.1 µM
O[C@H]1CC[C@H](Nc2ncc(-c3cccc(Nc4nccc(C(F)(F)F)n4)c3)s2)CC1 [Example 19]	≤ 0.1 µM
CC(C)C(CO)Nc1ncc(-c2cccc(Nc3nccc(C(F)(F)F)n3)c2)s1 (stereo not drawn) [Example 20]	≤ 0.1 µM
CNc1ncc(-c2cccc(Nc3nccc(C(F)(F)F)n3)c2)s1 [Example 21]	≤ 0.1 µM
Cn1cncc1CNc1ncc(-c2cccc(Nc3nccc(C(F)(F)F)n3)c2)s1 [Example 22]	≤ 0.1 µM
CC(C)(CO)Nc1ncc(-c2cccc(Nc3nccc(C(F)(F)F)n3)c2)s1 [Example 23]	≤ 0.1 µM
C=CCN(CC=C)c1ncc(-c2cccc(Nc3nccc(C(F)(F)F)n3)c2)s1 [Example 25]	≤ 0.1 µM
OCCCCCCN(Cc1ccccc1)c1ncc(-c2cccc(Nc3nccc(C(F)(F)F)n3)c2)s1 [Example 26]	0.1 to 1 µM

SMILES	IC50
Cc1cc(Nc2nccc(C(F)(F)F)n2)cc(-c2cnc(N(C)CCO)s2)c1 [Example 27]	≤ 0.1 µM
Cc1cc(Nc2nccc(C(F)(F)F)n2)cc(-c2cnc(NCCO)s2)c1 [Example 28]	≤ 0.1 µM
CC(C)(O)CNc1ncc(-c2cccc(Nc3nccc(C(F)(F)F)n3)c2)s1 [Example 29]	≤ 0.1 µM
COC(=O)c1ccc(N(C)c2ncc(-c3cccc(Nc4nccc(C(F)(F)F)n4)c3)s2)cc1 [Example 30]	0.1 to 1 µM
FC(F)(F)c1ccnc(Nc2cccc(-c3cnc(NCc4cncnc4)s3)c2)n1 [Example 31]	≤ 0.1 µM
CC(CO)Nc1ncc(-c2cccc(Nc3nccc(C(F)(F)F)n3)c2)s1 (stereo not drawn) [Example 32]	≤ 0.1 µM
CN(Cc1ccccn1)c1ncc(-c2cccc(Nc3nccc(C(F)(F)F)n3)c2)s1 [Example 33]	≤ 0.1 µM
CCOCCNc1ncc(-c2cccc(Nc3nccc(C(F)(F)F)n3)c2)s1 [Example 34]	≤ 0.1 µM
FC(F)(F)c1ccnc(Nc2cccc(-c3cnc(NCCc4c[nH]cn4)s3)c2)n1 [Example 35]	≤ 0.1 µM
CN(c1ncc(-c2cccc(Nc3nccc(C(F)(F)F)n3)c2)s1)C1CCOC1 (stereo not drawn) [Example 36]	≤ 0.1 µM
FC(F)(F)c1ccnc(Nc2cccc(-c3cnc(NCc4ccccn4)s3)c2)n1 [Example 37]	≤ 0.1 µM
FC(F)CNc1ncc(-c2cccc(Nc3nccc(C(F)(F)F)n3)c2)s1 [Example 38]	≤ 0.1 µM
FC(F)(F)c1ccnc(Nc2cccc(-c3cnc(NCc4cccnc4)s3)c2)n1 [Example 39]	≤ 0.1 µM
FC(F)(F)c1ccnc(Nc2cccc(-c3cnc(NCCc4cccs4)s3)c2)n1 [Example 40]	0.1 to 1 µM
FC(F)(F)c1ccnc(Nc2cccc(-c3cnc(NCc4c[nH]nn4)s3)c2)n1 [Example 41]	≤ 0.1 µM
CCC(C)Nc1ncc(-c2cccc(Nc3nccc(C(F)(F)F)n3)c2)s1 (stereo not drawn) [Example 42]	≤ 0.1 µM
FC(F)(F)c1ccnc(Nc2cccc(-c3cnc(NC4CCCC4)s3)c2)n1 [Example 43]	0.1 to 1 µM
CSCCNc1ncc(-c2cccc(Nc3nccc(C(F)(F)F)n3)c2)s1 [Example 44]	≤ 0.1 µM
FC(F)(F)c1ccnc(Nc2cccc(-c3cnc(NCC4CCOC4)s3)c2)n1 (stereo not drawn) [Example 45]	≤ 0.1 µM
Oc1ccc(CCNc2ncc(-c3cccc(Nc4nccc(C(F)(F)F)n4)c3)s2)cc1 [Example 46]	0.1 to 1 µM
CN(Cc1ccccc1)c1ncc(-c2cccc(Nc3nccc(C(F)(F)F)n3)c2)s1 [Example 48]	0.1 to 1 µM
OCCN(c1ncc(-c2cccc(Nc3nccc(C(F)(F)F)n3)c2)s1)C1CCCC1 [Example 49]	0.1 to 1 µM
COCC(O)CNc1ncc(-c2cccc(Nc3nccc(C(F)(F)F)n3)c2)s1 (stereo not drawn) [Example 50]	≤ 0.1 µM
O=C1CCCN1CCNc1ncc(-c2cccc(Nc3nccc(C(F)(F)F)n3)c2)s1 [Example 51]	≤ 0.1 µM
CCCN(CCO)c1ncc(-c2cccc(Nc3nccc(C(F)(F)F)n3)c2)s1 [Example 52]	≤ 0.1 µM

SMILES	IC50
CN1CCC(CNc2ncc(-c3cccc(Nc4nccc(C(F)(F)F)n4)c3)s2)C1 (stereo not drawn) [Example 53]	≤ 0.1 µM
COc1ccc(CCNc2ncc(-c3cccc(Nc4nccc(C(F)(F)F)n4)c3)s2)cc1 [Example 54]	0.1 to 1 µM
CC(Nc1ncc(-c2cccc(Nc3nccc(C(F)(F)F)n3)c2)s1)c1ccccc1 (stereo not drawn) [Example 55]	0.1 to 1 µM
CC(Cc1cnccn1)Nc1ncc(-c2cccc(Nc3nccc(C(F)(F)F)n3)c2)s1 (stereo not drawn) [Example 56]	≤ 0.1 µM
FC(F)(F)c1ccnc(Nc2cccc(-c3cnc(NCc4cccc(N5CCCCC5)c4)s3)c2)n1 [Example 57]	1 to 10 µM
FC(F)(F)c1ccnc(Nc2cccc(-c3cnc(NCC4CCCNC4)s3)c2)n1 (stereo not drawn) [Example 59]	≤ 0.1 µM
FC(F)(F)c1ccnc(Nc2cccc(-c3cnc(NCC4CCOCC4)s3)c2)n1 [Example 61]	≤ 0.1 µM
Cn1cc(CNc2ncc(-c3cccc(Nc4nccc(C(F)(F)F)n4)c3)s2)cn1 [Example 62]	≤ 0.1 µM
Cc1cc(C)n(CCNc2ncc(-c3cccc(Nc4nccc(C(F)(F)F)n4)c3)s2)n1 [Example 63]	0.1 to 1 µM
Fc1c(CNc2ncc(-c3cccc(Nc4nccc(C(F)(F)F)n4)c3)s2)cccc1C(F)(F)F [Example 64]	0.1 to 1 µM
C[C@@H](Nc1ncc(-c2cccc(Nc3nccc(C(F)(F)F)n3)c2)s1)C1CCCCC1 [Example 65]	1 to 10 µM
Cc1cc(CNc2ncc(-c3cccc(Nc4nccc(C(F)(F)F)n4)c3)s2)nn1C [Example 67]	≤ 0.1 µM
Cc1cc(CNc2ncc(-c3cccc(Nc4nccc(C(F)(F)F)n4)c3)s2)n(C)n1 [Example 69]	≤ 0.1 µM
OCCOCCNc1ncc(-c2cccc(Nc3nccc(C(F)(F)F)n3)c2)s1 [Example 72]	≤ 0.1 µM
CCCC[C@@H](CO)Nc1ncc(-c2cccc(Nc3nccc(C(F)(F)F)n3)c2)s1 [Example 74]	≤ 0.1 µM
Cc1ccsc1CNc1ncc(-c2cccc(Nc3nccc(C(F)(F)F)n3)c2)s1 [Example 75]	1 to 10 µM
FC(F)(F)c1ccnc(Nc2cccc(-c3cnc(NCc4cccc(-n5cccn5)c4)s3)c2)n1 [Example 76]	≤ 0.1 µM
FC(F)(F)c1ccnc(Nc2cccc(-c3cnc(NCc4c[nH]nc4-c4ccccc4)s3)c2)n1 [Example 78]	0.1 to 1 µM
Cc1nn(C)c(C)c1CNc1ncc(-c2cccc(Nc3nccc(C(F)(F)F)n3)c2)s1 [Example 79]	≤ 0.1 µM
CSCCC(CO)Nc1ncc(-c2cccc(Nc3nccc(C(F)(F)F)n3)c2)s1 (stereo not drawn) [Example 80]	≤ 0.1 µM
Cn1cnc(CNc2ncc(-c3cccc(Nc4nccc(C(F)(F)F)n4)c3)s2)c1 [Example 81]	≤ 0.1 µM
OC1CCCC(Nc2ncc(-c3cccc(Nc4nccc(C(F)(F)F)n4)c3)s2)C1 (stereo not drawn) [Example 82]	≤ 0.1 µM
Cc1cc(CNc2ncc(-c3cccc(Nc4nccc(C(F)(F)F)n4)c3)s2)no1 [Example 83]	≤ 0.1 µM
CCC(CO)Nc1ncc(-c2cc(C)cc(Nc3nccc(C(F)(F)F)n3)c2)s1 (stereo not drawn) [Example 84]	≤ 0.1 µM
Cc1cc(Nc2nccc(C(F)(F)F)n2)cc(-c2cnc(NCc3cccnc3)s2)c1 [Example 85]	≤ 0.1 µM

— US8735417B2, “Aminopyrimidines as Syk inhibitors” (Merck Sharp & Dohme Corp., priority 2009, dated 2014)
